Measurements as given in article PMC9011347, “Small-Molecule Inhibitors Targeting Lipolysis in Human Adipocytes” (Journal of the American Chemical Society, 2022).

Tests used:
Assay in all cases: TAG hydrolase assay, chimeric ATGL variants
Format in all cases: biochemical, human and mouse
[1] = target: T1, Variant c4 (aa 1–69 of human ATGL) (Homo sapiens, UniProt Q96AD5, F97C/G146T/H109R/I93T/N133S/S106C/S111N/S158T/S96G/V101T); details: variant c4, NG-497 (10 μM) or Atglistatin (10 μM)
T1 construct: host or cells: Expi293 cells, cell lysate
T1 sequence (Q96AD5 1-288 I93T/S96G/F97C/V101T/S106C/H109R/S111N/N133S/G146T/S158T): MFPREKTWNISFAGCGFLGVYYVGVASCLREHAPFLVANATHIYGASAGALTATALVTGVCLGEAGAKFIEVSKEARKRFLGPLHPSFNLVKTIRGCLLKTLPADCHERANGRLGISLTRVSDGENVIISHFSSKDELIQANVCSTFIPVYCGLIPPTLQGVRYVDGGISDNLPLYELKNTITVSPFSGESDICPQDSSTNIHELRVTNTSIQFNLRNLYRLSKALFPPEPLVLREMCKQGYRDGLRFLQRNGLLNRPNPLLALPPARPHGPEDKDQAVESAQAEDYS
Description: (§1) Figure 5 Analysis of chimeric proteins comprising human and mouse ATGL. (a) Schematic view of the minimal active domain of wild-type and chimeric ATGL variants (c1–c9). Nonidentical aa are indicated in blue and red for mouse and human ATGL, respectively. ATGL variants were expressed in Expi293 cells and TAG hydrolase activity was determined in cell lysates in the presence or absence of NG-497 (10 μM) and Atglistatin (10 μM), respectively. Inhibition of ATGL variants by respective inhibitors (tick mark) and lack of inhibition (cross) is indicated at the right edge. The expression of all ATGL variants was confirmed by Western blotting analysis (Figure S6). (b) Dose-dependent inhibition of human ATGL (aa 1–288) and c1 (human aa 1–158 and mouse aa 159–288) by NG-497. (c) Dose-dependent inhibition of mouse ATGL (aa 1–288) and c2 (mouse aa 1–158 and human aa 159–288) by Ai. IC50 values are shown in the insets. Data are presented as relative inhibition of respective DMSO controls and are indicated as mean ± SD. (d) 3D homology model of the minimal active domain of mouse ATGL (M1–L254) depicted as a cartoon. Residues 1–178 are in blue, and residues 179–254 are in gray. S47 and D166 comprising the active site are represented as green sticks. T101, C106, R109, N111, and S133 are colored in orange, A60, N68, I69, T93, C97, and T146 are colored in magenta. TEXT PRINTED IN THE PICTURE: (b) NG-497: IC50 [μM] (human): 1.3±0.1; IC50 [μM] (c1): 1.3±0.1 | (b) Ai: IC50 [μM] (human): n.det.; IC50 [μM] (c1): n.det. | (c) NG-497: IC50 [μM] (mouse): n.det.; IC50 [μM] (c2): n.det. | (c) Ai: IC50 [μM] (mouse): 2.5±0.3; IC50 [μM] (c2): 2.4±0.1 […]
(§2) We next generated variants by further stepwise humanization of c2. Variant c3 containing aa 1–23 of human ATGL was inhibited by Ai but not NG-497 (Figure 5a). […] Finally, variants of mouse ATGL containing aa 1–146 (c7) and 60–146 (c8) of human ATGL were inhibited by NG-497 but not Ai (Figure 5a).
(§3) Experimental details, materials, and methods
(§4) Expression of recombinant ATGL constructs and preparation of cell lysates. Expi293 cells were cultivated in Expi293 Expression Medium (GIBCO, Thermo Fisher Scientific, Waltham, USA) at standard conditions (37°C, 5% CO2, 95% humidified atmosphere, 125 rpm). DNA constructs containing ATGL from different species and chimeric ATGL variants in pcDNA3.1(+)myc-His C Vector were obtained from BioCat GmbH (Heidelberg, Germany). Cells were transfected with ExpiFectamine293 Transfection Kit (GIBCO) in Opti-Mem reduced serum medium (GIBCO) according to the manufacturer’s instructions. After 48 h, cells were harvested by centrifugation and washed three times with PBS. Cells were disrupted in buffer A (0.25 M sucrose, 1 mM EDTA, 1 mM dithiothreitol, 20µg/ml leupeptin, 2 µg/ml antipain, 1 µg/ml pepstatin, pH 7.0) by sonication (Virsonic 475, Virtis, Gardiner, USA). Nuclei and debris were removed by centrifugation at 1,000 g and 4°C for 10 min. Protein concentrations were determined using Bio-Rad protein assay (Bio-Rad 785, Bio-Rad Laboratories, Munich, Germany) using BSA as standard.
(§5) Expression and purification of mouse CGI-58. CGI-58 was expressed and purified as described 1. In brief, the coding sequence of mouse Cgi-58 was cloned into pHis-Sumo and co-transformed with the plasmid pTf16 expressing the chaperone Tig into E. coli BL21(DE3). Cells were cultured overnight at 37°C and 180 rpm in the presence of 40 µg/ml kanamycin and 34 µg/ml chloramphenicol. Thereafter, cells were transferred into fresh LB medium, grown until OD600 of 0.6, and expression was induced by the addition of 0.5 mM IPTG. After overnight incubation at 30°C, cells were harvested at 4,500 x g and 4°C for 20 min, washed in 1x PBS, and resuspended in lysis buffer (20 mM Tris/HCl pH 7.8, 300 mM NaCl, 30 mM imidazole, 0.1% IGEPAL CA-630, 3.5 mM β-mercaptoethanol, 20 µg/ml leupeptin, 2 µg/ml antipain and 1 µg/ml pepstatin). Cells were incubated with 1 […]

[2] = target: T2, c5 (aa 1–111 of human ATGL) (Homo sapiens, UniProt Q96AD5, G146T/N133S/S158T); details: variant c5, NG-497 (10 μM) or Atglistatin (10 μM)
T2 construct: host or cells: Expi293 cells, cell lysate
T2 sequence (Q96AD5 1-288 N133S/G146T/S158T): as the sequence (Q96AD5 1-288 I93T/S96G/F97C/V101T/S106C/H109R/S111N/N133S/G146T/S158T) above, with T93I, G96S, C97F, T101V, C106S, R109H, N111S counted along it
Description: as §1, §2, §3, §4, §5

[3] = target: T3, c6 (aa 1–133 of human ATGL) (Homo sapiens, UniProt Q96AD5, G146T/S158T); details: variant c6, NG-497 (10 μM) or Atglistatin (10 μM)
T3 construct: host or cells: Expi293 cells, cell lysate
T3 sequence (Q96AD5 1-288 G146T/S158T): as the sequence (Q96AD5 1-288 I93T/S96G/F97C/V101T/S106C/H109R/S111N/N133S/G146T/S158T) above, with T93I, G96S, C97F, T101V, C106S, R109H, N111S, S133N counted along it
Description: as §1, §2, §3, §4, §5

[4] = target: T4, c9 (mouse ATGL with humanized T101, C106, R109, N111, S133) (Mus musculus, UniProt Q8BJ56, C106S/N111S/R109H/S133N/T101V); details: variant c9, NG-497 (10 μM) or Atglistatin (10 μM)
T4 construct: host or cells: Expi293 cells, cell lysate
T4 sequence (Q8BJ56 1-288 T101V/C106S/R109H/N111S/S133N limits assumed): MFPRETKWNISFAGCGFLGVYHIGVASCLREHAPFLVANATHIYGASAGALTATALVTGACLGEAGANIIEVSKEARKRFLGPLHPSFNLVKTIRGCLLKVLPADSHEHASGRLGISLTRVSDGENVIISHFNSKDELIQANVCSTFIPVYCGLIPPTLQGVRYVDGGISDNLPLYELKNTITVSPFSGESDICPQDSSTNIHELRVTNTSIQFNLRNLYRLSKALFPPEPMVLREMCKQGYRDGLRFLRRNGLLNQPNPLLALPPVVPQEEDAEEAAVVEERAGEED
Description: as §1, with “gray.” for “gray. S47 and D166 comprising the active site are represented as green sticks. T101, C106, R109, N111, and S133 are colored in orange, A60, N68, I69, T93, C97, and T146 are colored in magenta. TEXT PRINTED IN THE PICTURE: (b) NG-497: IC50 [μM] (human): 1.3±0.1; IC50 [μM] (c1): 1.3±0.1 | (b) Ai: IC50 [μM] (human): n.det.; IC50 [μM] (c1): n.det. | (c) NG-497: IC50 [μM] (mouse): n.det.; IC50 [μM] (c2): n.det. | (c) Ai: IC50 [μM] (mouse): 2.5±0.3; IC50 [μM] (c2): 2.4±0.1”
Expression of recombinant ATGL constructs and preparation of cell lysates. […] Protein concentrations were determined using Bio-Rad protein assay (Bio-Rad 785, Bio-Rad Laboratories, Munich, Germany) using BSA as standard. […]

Compound | inhibition of TAG hydrolase activity [1] | inhibition of TAG hydrolase activity [2] | inhibition of TAG hydrolase activity [3] | inhibition of TAG hydrolase activity [4]
CCOc1ccc(-c2cc(OC)cc(C(=O)OC(C)C)n2)cc1 [NG-497] | neither inhibited | neither inhibited | neither inhibited | ineffective
CN(C)C(=O)Nc1cccc(-c2ccc(N(C)C)cc2)c1 [Atglistatin, reference compound] | neither inhibited | neither inhibited | neither inhibited | preserved Ai binding
